Source: ChEMBL document CHEMBL1155719, “Synthesis of phakellistatin 11: a micronesia (Chuuk) marine sponge cyclooctapeptide” (2001)
Converted amounts (≈) assume the structure as drawn. Residues, ends and D or L forms follow the SMILES beside them.

What was measured:
[1] = tested on: P388; experiment: Cytotoxicity against mouse P388 cells; assay type: functional; conditions: read-out: ED50 (the source's name)
[2] = tested on: P388; experiment: Cytotoxicity against mouse P388 cells by NMR biological activity study; assay type: functional; conditions: read-out: ED50 (the source's name)

CC[C@H](C)[C@@H]1NC(=O)[C@@H]2CCCN2C(=O)[C@H](Cc2ccccc2)NC(=O)[C@@H]2CCCN2C(=O)[C@H](Cc2ccc(O)cc2)NC(=O)[C@@H]2CCCN2C(=O)[C@H]([C@@H](C)CC)NC1=O.Cl [PHAKELLISTATIN 2 (SYNTHETIC)] (cyclo(FPIIPYP))
EC50 [1]: 24 µg/mL

CC[C@H](C)[C@@H]1NC(=O)[C@@H]2CCCN2C(=O)[C@H](Cc2ccccc2)NC(=O)[C@@H]2CCCN2C(=O)[C@H](Cc2ccc(O)cc2)NC(=O)[C@@H]2CCCN2C(=O)[C@H]([C@@H](C)CC)NC1=O [PHAKELLISTATIN 2] (cyclo(FPIIPYP))
EC50 [1]: 0.34 µg/mL (≈ 0.411 µM)

CC[C@H](C)[C@@H]1NC(=O)[C@H](CC(C)C)NC(=O)[C@@H]2CCCN2C(=O)[C@H]([C@@H](C)CC)NC(=O)[C@@H]2CCCN2C(=O)[C@H](CO)NC(=O)[C@H](Cc2ccccc2)NC1=O [STYLOPEPTIDE] (cyclo(FSPIPLI))
EC50 [2]: 6 µg/mL (≈ 7.81 µM)
EC50 [1]: 0.1 µg/mL (≈ 0.13 µM)

CC[C@H](C)[C@@H]1NC(=O)[C@H](C)NC(=O)[C@H](CC(C)C)NC(=O)[C@H](CO)NC(=O)[C@H](CC(N)=O)NC(=O)[C@H](Cc2ccccc2)NC(=O)[C@@H]2CCCN2C1=O [STYLOSTATIN 1] (cyclo(AIPFNSL))
EC50 [1]: 10 µg/mL (≈ 13.5 µM)
